The source of these data is ChEMBL document CHEMBL3526091, “Pharmacokinetics, metabolism, and excretion of the glycogen synthase kinase-3 inhibitor LY2090314 in rats, dogs, and humans: a case study in rapid clearance by extensive metabolism with low circulating metabolite exposure” (Drug Metab Dispos, 2013).

Structures are written as SMILES.

Settings in all cases: in vivo
For data set [1], the system named is Plasma. The experiment in a line: Drug recovery in beagle dog plasma assessed as radiochemical peak area treated with 5 mg/kg, iv LY2090314 for 30 mins after 0.5 hrs by radio analysis. It is filed as ADME, organism-based, Canis lupus familiaris. Also noted: dose 5 mg/kg, dosed compound name [14C]LY2090314, route intravenous.
Data set [2] is described as follows: Drug recovery in bile duct-cannulated Sprague-Dawley rat assessed as radioactivity in bile during 0 to 12 hrs treated with 5 mg/kg, iv LY2090314 for 30 mins. It is filed as ADME, organism-based. Also on record: dose 5 mg/kg, dosed compound name [14C]LY2090314, route intravenous.
The test system of data set [3] is Plasma. The experiment in a line: Drug recovery in beagle dog plasma assessed as radiochemical peak area treated with 5 mg/kg, iv LY2090314 for 30 mins after 2 hrs by radio analysis. It is filed as ADME, organism-based, Canis lupus familiaris. Also on record: dose 5 mg/kg, dosed compound name [14C]LY2090314, route intravenous.
A short description of data set [4]: Drug recovery in bile duct-intact beagle dog assessed as radioactivity in feces during 0 to 48 hrs treated with 5 mg/kg, iv LY2090314 for 30 mins. It is filed as ADME, organism-based, Canis lupus familiaris. Also noted: dose 5 mg/kg, dosed compound name [14C]LY2090314, route intravenous.
The nature of data set [5]: Drug recovery in po dosed human urine. The format is ADME, organism-based. Also on record: dosed compound name Ruboxistaurin.
Data set [6] can be described thus: Drug recovery in po dosed dog feces. It is filed as ADME, organism-based, Canis lupus familiaris. Also on record: dosed compound name Ruboxistaurin.
A short description of data set [7]: Drug recovery in po dosed mouse feces. The format is ADME, organism-based. Also noted: dosed compound name Ruboxistaurin.
Data set [8] is described as follows: Drug recovery in po dosed rat urine. The format is ADME, organism-based. Also on record: dosed compound name Ruboxistaurin.
Data set [9] is described as follows: Drug recovery in po dosed rat feces. The format is ADME, organism-based. Also noted: dosed compound name Ruboxistaurin.
The nature of data set [10]: Drug recovery in po dosed mouse urine. It is filed as ADME, organism-based. Also noted: dosed compound name Ruboxistaurin.
The nature of data set [11]: Drug recovery in po dosed human feces. The format is ADME, organism-based. Also noted: dosed compound name Ruboxistaurin.
The nature of data set [12]: Drug recovery in po dosed rat bile. Also noted: dosed compound name Ruboxistaurin. The format is ADME, organism-based.
Data set [13] can be described thus: Drug recovery in po dosed dog urine. It is filed as ADME, organism-based, Canis lupus familiaris. Also noted: dosed compound name Ruboxistaurin.

`NC(=O)N1CCn2cc(C3=C(c4cnc5ccccn45)C(=O)NC3=O)c3cc(F)cc(c32)C1`: the Compound recovery in the data set on Plasma [1] turned out to be 0.1%; in data set [2], 4.15%; in the data set on Plasma [3] it was 0%.

Consider `O=C(O)CCNC(=O)N1CCn2cc(C3=C(c4cnc5ccccn45)C(=O)NC3=O)c3cc(F)cc(c32)C1`, for which, in data set [2], the Compound recovery stood at 0%.

As for `O=C1NC(=O)C(c2c[n+](O[C@@H]3O[C@H](C(=O)O)[C@@H](O)[C@H](O)[C@H]3O)c3ccccn23)=C1c1cn2c3c(cc(F)cc13)CN(C(=O)N1CCCCC1)CC2`, the figures for the Compound recovery (in the data set on Plasma [1]; in data set [4]; in the data set on Plasma [3]) were 12.66%, 5.42% and 18.81%, respectively.

Take `O=C(CCNC(=O)N1CCn2cc(C3=C(c4cnc5ccccn45)C(=O)NC3=O)c3cc(F)cc(c32)C1)NCCS(=O)(=O)O`: the Compound recovery in [2] turned out to be 6.76%.

For the molecule `CN(C)C[C@@H]1CCn2cc(c3ccccc32)C2=C(C(=O)NC2=O)c2cn(c3ccccc23)CCO1` [RUBOXISTAURIN], the Radiolabel recovery entry is “<= 4%” in data set [5]; 83% in data set [6]; 83% in data set [7]; “<= 4%” in data set [8]; 83% in data set [9]; “<= 4%” in data set [10]. Also, the Radiolabel recovery in data set [11] is reported as 83%; in data set [12], 59%; in data set [13], “<= 4%”.
